Measured values published in patent publication US20250171423A1, “PHARMACEUTICAL COMPOUNDS FOR THE TREATMENT OF COMPLEMENT MEDIATED DISORDERS” (Achillion Pharmaceuticals, Inc., priority 2020, published 2025).

Molecular target: T1, Human complement C1s enzyme (Homo sapiens, UniProt P09871)
T1 construct: purified from human serum, Complement Technology, Inc; purchased Complement Technology, Inc; host or cells: human serum
T1 sequence (P09871 438-688 limits assumed): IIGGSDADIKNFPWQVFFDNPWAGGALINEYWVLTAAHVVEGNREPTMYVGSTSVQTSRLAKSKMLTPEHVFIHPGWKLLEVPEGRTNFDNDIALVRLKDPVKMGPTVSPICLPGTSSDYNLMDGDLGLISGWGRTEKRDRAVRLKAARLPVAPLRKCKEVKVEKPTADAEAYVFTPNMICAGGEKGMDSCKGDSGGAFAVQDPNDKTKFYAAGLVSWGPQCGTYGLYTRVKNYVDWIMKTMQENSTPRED
T1 sequence (P09871 16-437 partner limits assumed): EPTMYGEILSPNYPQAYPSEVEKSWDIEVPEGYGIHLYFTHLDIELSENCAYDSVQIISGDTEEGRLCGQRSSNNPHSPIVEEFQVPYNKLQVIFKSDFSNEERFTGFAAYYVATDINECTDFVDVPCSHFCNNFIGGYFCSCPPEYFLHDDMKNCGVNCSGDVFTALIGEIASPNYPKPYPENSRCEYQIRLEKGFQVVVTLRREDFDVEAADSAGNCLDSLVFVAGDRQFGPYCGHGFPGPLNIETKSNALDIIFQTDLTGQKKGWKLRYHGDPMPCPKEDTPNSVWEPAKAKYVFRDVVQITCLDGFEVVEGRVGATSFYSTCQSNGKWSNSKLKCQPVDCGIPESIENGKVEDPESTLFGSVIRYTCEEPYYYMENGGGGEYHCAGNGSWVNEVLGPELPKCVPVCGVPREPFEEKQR
Experiment: Human C1s Enzyme Assay
Assay type: biochemical
Conditions: human C1s 1.16 nM, 5 min preincubation, substrate Z-L-Lys-SBzl 100 μM, A405; read-out: C1s Protease Activity
How it was run: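 C1s purified from human serum (1.16 nM final) was preincubated with compound for 5 min at room temperature in 50 mM Tris, 1 M NaCl, pH 7.5. Z-L-Lys-SBzl and DTNB were then added at 100 μM each, and A405 was followed for 30 min. IC50 came from nonlinear regression of reaction rates.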

`CC(COc1ccccc1)CC(=O)NCC(=O)N1CC2(C[C@H]1C(=O)NCc1cc(C(=N)N)cs1)OCCO2` (stereo partly drawn) [Compound 70, (8S)-N-((4-carbamimidoylthiophen-2-yl)methyl)-7-((3-methyl-4-phenoxybutanoyl)glycyl)-1,4-dioxa-7-azaspiro[4.4]nonane-8-carboxamide] and `N=C(N)c1csc(CNC(=O)[C@@H]2C[C@@]3(CN2C(=O)CNC(=O)CCCOc2ccccc2)CC3(F)F)c1` [Compound 56, (3S,6S)-N-((4-carbamimidoylthiophen-2-yl)methyl)-1,1-difluoro-5-((4-phenoxy-butanoyl)glycyl)-5-azaspiro[2.4]heptane-6-carboxamide] cannot be ordered by IC50: less than 100 nM for the first, less than 100 nM for the second.

First: COC(=N)c1csc(CNC(=O)[C@@H]2C[C@]3(C)C[C@@H]3N2C(=O)CNC(=O)c2ccc(Oc3ccccc3)cc2)c1 [Compound 32, methyl 5-(((1S,3S,5S)-5-methyl-2-((4-phenoxybenzoyl)glycyl)-2-azabicyclo[3.1.0]-hexane-3-carboxamido)methyl)thiophene-3-carbimidate]
Second: C[C@@]12C[C@@H]1N(C(=O)CNC(=O)c1ccc(Oc3ccccc3)cc1)[C@H](C(=O)NCc1cc(C(N)=O)cs1)C2 [Compound 8, (1S,3S,5S)-N-((4-carbamoylthiophen-2-yl)methyl)-5-methyl-2-((4-phenoxybenzoyl)-glycyl)-2-azabicyclo[3.1.0]hexane-3-carboxamide]
The IC50 of the first is lower: 100 to 1000 nM for the first, greater than 1000 nM for the second.

`C[C@@H](NC(=O)[C@@H]1C[C@]2(C)C[C@@H]2N1C(=O)CNC(=O)CCCOc1ccc(F)cc1)c1cc(C(=N)N)cs1` [Compound 121, (1S,3S,5S)-N-((R)-1-(4-carbamimidoylthiophen-2-yl)ethyl)-2-((4-(4-fluorophenoxy)butanoyl)glycyl)-5-methyl-2-azabicyclo[3.1.0]hexane-3-carboxamide] and `C[C@@]12C[C@@H]1N(C(=O)CNC(=O)CCCOc1ccc(S(C)(=N)=O)cc1)[C@H](C(=O)NCc1cc(C(=N)N)cs1)C2` (stereo partly drawn) [Compound 76, (1S,3S,5S)-N-((4-carbamimidoylthiophen-2-yl)methyl)-5-methyl-2-((4-(4-(S-methyl-sulfonimidoyl)phenoxy)butanoyl)glycyl)-2-azabicyclo[3.1.0]hexane-3-carboxamide] fall in the same range of IC50: 100 to 1000 nM for the first, 100 to 1000 nM for the second.

`C[C@@]12C[C@@H]1N(C(=O)CNC(=O)c1ccc(Oc3ccccc3)cc1)[C@H](C(=O)NCc1cc(C(=N)N)c(F)s1)C2` [Compound 239, (1S,3S,5S)-N-((4-carbamimidoyl-5-fluorothiophen-2-yl)methyl)-5-methyl-2-((4-phenoxybenzoyl)glycyl)-2-azabicyclo[3.1.0]hexane-3-carboxamide] and `C[C@@]12C[C@@H]1N(C(=O)CNC(=O)c1ccc(Oc3cccnc3)cc1)[C@H](C(=O)NCc1cc(C(=N)N)cs1)C2` [Compound 94, (1S,3S,5S)-N-[(4-carbamimidoylthiophen-2-yl)methyl]-5-methyl-2-(2-{[4-(pyridin-3-yloxy)phenyl]formamido}acetyl)-2-azabicyclo[3.1.0]hexane-3-carboxamide] cannot be ordered by IC50: less than 100 nM for the first, less than 100 nM for the second.

Compared with `N=C(N)c1csc([C@@H](NC(=O)[C@@H]2CC3(CN2C(=O)CNC(=O)CCCOc2ccccc2)OCCO3)C2CCCC2)c1` [Compound 179, (S)-N-((S)-(4-carbamimidoylthiophen-2-yl)(cyclopentyl)methyl)-7-((4-phenoxybutanoyl)glycyl)-1,4-dioxa-7-azaspiro[4.4]nonane-8-carboxamide], `C[C@@H](NC(=O)[C@@H]1C[C@@]2(CN1C(=O)CNC(=O)CCCOc1ccccc1)CC2(F)F)c1cc(C(=N)N)cs1` [Compound 105, (3S,6S)-N-((R)-1-(4-carbamimidoylthiophen-2-yl)ethyl)-1,1-difluoro-5-((4-phenoxy-butanoyl)glycyl)-5-azaspiro[2.4]heptane-6-carboxamide] is lower in IC50: greater than 1000 nM for the first, 100 to 1000 nM for the second. The second is the more potent here.

`C[C@@H](NC(=O)[C@@H]1C[C@@H](Oc2ccccc2)CN1C(=O)CNC(=O)CCCOc1ccccc1)c1cc(C(=N)N)cs1` [Compound 111, (2S,4R)-N-((R)-1-(4-carbamimidoylthiophen-2-yl)ethyl)-4-phenoxy-1-((4-phenoxy-butanoyl)glycyl)pyrrolidine-2-carboxamide] and `C[C@@H](NC(=O)[C@@H]1C[C@@H](c2ccccc2)CN1C(=O)CNC(=O)c1ccc(Oc2ccccc2)cc1)c1cc(C(=N)N)cs1` [Compound 246, (2S,4S)-N-((R)-1-(4-carbamimidoylthiophen-2-yl)ethyl)-1-((4-phenoxybenzoyl)glycyl)-4-phenylpyrrolidine-2-carboxamide] cannot be ordered by IC50: less than 100 nM for the first, less than 100 nM for the second.

`C[C@@]12C[C@@H]1N(C(=O)CNC(=O)c1ccc(Oc3ccccc3)cc1)[C@H](C(=O)NC1(c3cc(C(=N)N)cs3)CC1)C2` [Compound 41, (1S,3S,5S)-N-(1-(4-carbamimidoylthiophen-2-yl)cyclopropyl)-5-methyl-2-((4-phenoxybenzoyl)glycyl)-2-azabicyclo[3.1.0]hexane-3-carboxamide] and `C[C@@]12C[C@@H]1N(C(=O)CNC(=O)c1ccc(Oc3ccccc3)cc1)[C@H](C(=O)OCc1cc(C(=N)N)cs1)C2` [Compound 89, (1S,3S,5S)-(4-carbamimidoylthiophen-2-yl)methyl 5-methyl-2-((4-phenoxybenzoyl)glycyl)-2-azabicyclo[3.1.0]hexane-3-carboxylate] cannot be ordered by IC50: less than 100 nM for the first, less than 100 nM for the second.

`N=C(N)c1csc(CNC(=O)[C@@H]2C[C@]3(CN4CCOCC4)C[C@@H]3N2C(=O)CNC(=O)CCCOc2ccccc2)c1` [Compound 135, (1S,3S,5S)-N-((4-carbamimidoylthiophen-2-yl)methyl)-5-(morpholinomethyl)-2-((4-phenoxybutanoyl)glycyl)-2-azabicyclo[3.1.0]hexane-3-carboxamide] and `CC1(c2ccc(OCCCC(=O)NCC(=O)N3[C@H]4C[C@@]4(C)C[C@H]3C(=O)NCc3cc(C(=N)N)cs3)cc2)COC1` [Compound 140, (1S,3S,5S)-N-((4-carbamimidoylthiophen-2-yl)methyl)-5-methyl-2-((4-(4-(3-methyloxetan-3-yl)phenoxy)butanoyl)glycyl)-2-azabicyclo[3.1.0]hexane-3-carboxamide] cannot be ordered by IC50: less than 100 nM for the first, less than 100 nM for the second.

`N=C(N)c1csc(CNC(=O)[C@@H]2C[C@@H](N3CCCC3)CN2C(=O)CNC(=O)c2ccc(Oc3ccccc3)cc2)c1` [Compound 48, (3′R,5'S)-N-((4-carbamimidoylthiophen-2-yl)methyl)-1′-((4-phenoxybenzoyl)glycyl)-[1,3′-bipyrrolidine]-5′-carboxamide] and `N=C(N)c1csc(CNC(=O)[C@@H]2CC(=C(F)F)CN2C(=O)CNC(=O)c2ccc(Oc3ccccc3)cc2)c1` [Compound 1, (S)-N-((4-carbamimidoylthiophen-2-yl)methyl)-4-(difluoromethylene)-1-((4-phenoxybenzoyl)glycyl)pyrrolidine-2-carboxamide] cannot be ordered by IC50: less than 100 nM for the first, less than 100 nM for the second.

`C[C@@]12C[C@@H]1N(C(=O)CNC(=O)c1ccc(Oc3ccccc3)cc1)[C@H](C(=O)NCc1cc(/C(N)=N/NS(=O)(=O)c3ccccc3)cs1)C2` [Compound 139, (1S,3S,5S)-N-((4-(imino(2-(phenylsulfonyl)hydrazineyl)methyl)thiophen-2-yl)methyl)-5-methyl-2-((4-phenoxybenzoyl)glycyl)-2-azabicyclo[3.1.0]hexane-3-carboxamide] and `C[C@@]12C[C@@H]1N(C(=O)CNC(=O)c1ccc(Oc3ccccc3)cc1)[C@H](C(=O)NCc1cc(/C(N)=N/S(N)(=O)=O)cs1)C2` [Compound 205, (1S,3S,5S)-5-methyl-2-((4-phenoxybenzoyl)glycyl)-N-((4-(N-sulfamoylcarbamimidoyl)thiophen-2-yl)methyl)-2-azabicyclo[3.1.0]hexane-3-carboxamide] cannot be ordered by IC50: greater than 1000 nM for the first, greater than 1000 nM for the second.

`C[C@@H](NC(=O)[C@@H]1C[C@]2(COCCCCCC(=O)O)C[C@@H]2N1C(=O)CNC(=O)CCCOc1ccccc1)c1cc(C(=N)N)cs1` [Compound 169, 6-(((1S,3S,5R)-3-(((R)-1-(4-carbamimidoylthiophen-2-yl)ethyl)carbamoyl)-2-((4-phenoxybutanoyl)glycyl)-2-azabicyclo[3.1.0]hexan-5-yl)methoxy)hexanoic acid] and `C[C@@H](NC(=O)[C@@H]1C[C@](F)(COCCCCCC(=O)O)CN1C(=O)CNC(=O)c1ccc(Oc2ccccc2)cc1)c1cc(C(=N)N)cs1` [Compound 199, 6-(((3R,5S)-5-(((R)-1-(4-carbamimidoylthiophen-2-yl)ethyl)carbamoyl)-3-fluoro-1-((4-phenoxybenzoyl)glycyl)pyrrolidin-3-yl)methoxy)hexanoic acid] cannot be ordered by IC50: less than 100 nM for the first, less than 100 nM for the second.

`C[C@@]12C[C@@H]1N(C(=O)CNC(=O)c1ccc(Oc3ccccc3)cc1)[C@H](C(=O)NCc1cc(/C(N)=N/[N+](=O)[O-])cs1)C2` [Compound 11, (1S,3S,5S)-5-methyl-N-((4-((Z)-N′-nitrocarbamimidoyl)thiophen-2-yl)methyl)-2-((4-phenoxybenzoyl)glycyl)-2-azabicyclo[3.1.0]hexane-3-carboxamide] showed an IC50 greater than 1000 nM.
